Experiments:
[1] = Hexadecane autoxidation at 160° C. (hydroperoxide formation), stirred flow reactor, initiated by tetralin hydroperoxide; conditions: for effect of added palmitic acid on inhibitory activity: 1 mM palmitic acid; for effect of added base 2,4,6-tri-tert-butylpyridine on inhibition of autoxidation: TTBP 1 mM vs. no base
Description: To evaluate the effect of an added sacrificial base on the high-temperature radical-trapping activity of antioxidants, autoxidations of n-hexadecane were carried out at 160° C. in a stirred flow reactor in the absence of or presence of a base, where a constant positive pressure of O2 was used to stir the medium and prevent mass transfer from becoming rate limiting (Igarashi, J., et al., J. Am. Chem. Soc. 1992, 114, 7727; Jensen, R.; et al., J. Am. Chem. Soc. 1979, 101, 7574). Tetralin hydroperoxide (10 mM) was used as a radical initiator since inhibited autoxidations in the absence of an initiator were very slow. At regular intervals, aliquots of the reaction mixture were removed, cooled and the concentration of hydroperoxide products determined by reaction with a developed fluorogenic phosphine (Hanthorn, J. J., et al., Chem. Commun. 2012, 48, 10141). Autoxidations were followed for the first 2% of the reaction, based on hydroperoxide formation, since beyond ca. 3% conversion, the hydroperoxide yield begins to decrease and highly complex mixtures of ketones, alcohols, carboxylic acids and esters arise.
n-Hexadecane (100 mL) was thoroughly degassed with argon and heated to 160° C. while argon was continuously bubbled through the liquid. […] For those experiment where acid or base was present, as noted in the figure captions, they were also added at this point. Aliquots (0.5 mL) were removed every 5 minutes, and allowed to cool to room temperature for analysis. Four duplicates (30 μL) of each sample were loaded into separate wells of a 96-well microplate and the automated reagent dispenser of the microplate reader was used to dilute each sample with tert-amyl alcohol (200 μL) and a solution of fluorogenic phosphine dye solution (20 μL of a 250 μM stock solution in acetonitrile) immediately before reading. The plate was stirred for 8 seconds, allowed to rest for 2 more seconds, and the fluorescence of each well was measured every second for 60 seconds (absorption at 340; emission at 425). The concentration of hydroperoxide was determined from the rate of phosphine oxidation using the rate constant for the reaction of the dye with secondary hydroperoxides in tert-amyl alcohol (k=1.2 M^−1s^−1) assuming pseudo-first-order kinetics. See sample data from an uninhibited autoxidation and one inhibited with diarylamine 4 alongside analogous experiments in the absence of the initiator tetralin hydroperoxide, or O2 (FIGS. 2C-E). Further results are presented in FIGS. 7 to 17 for hexadecane autoxidations and FIGS. 18 and 19 for tetralin autooxidations in the presence and absence of antioxidants, and at varying pH. FIGS. 14-17 correspond to hexadecane autoxidations carried out for diarylamine 4 in the presence of four different bases. FIGS. 7-13 correspond to hexadecane autoxidations carried out for compounds 1-7 and 20 in the presence and absence of a base, specifically, 2,4,6-tri-tert-butylpyridine. FIG. 5A corresponds to hexadecane autoxidations carried out for diarylamine 4 and 7 in the presence and absence of palmitic acid.

[2] = pKa measurement by titration of hydrochloride salts with NaOH; format: physicochemical; conditions: 4:1 (v:v) CH3CN:H2O solution of the hydrochloride salt; in 4:1 CH3CN:H2O; read-out: pKa of the conjugate acid
Description: Solutions of the hydrochloride salts of diarylamines 1-7 (1 mM) were made up in 4:1 CH3CN:H2O (3.0 mL) and the pH was measured using an Accument Electrode microbe referenced to Ag/Ag^+ as a function of added volumes of NaOH (10 mM). […] The titration curves for the diarylamines are shown in FIGS. 6A and 6B (averages of triplicate experiments), and the pKas reported in the manuscript correspond to the pH when 0.5 molar equivalents of NaOH were added to the solution.

[3] = Diarylamine stability to oxygen at 160° C. in n-hexadecane; format: physicochemical
Description: n-Hexadecane (100 mL) was thoroughly degassed with argon and then heated to 160° C. while argon was continuously bubbled through the liquid. Once the temperature stabilized, 2.5 mmol of diarylamines 1-7 were added to the solution and the flow of argon was replaced with 02. Aliquots (100 μL) were removed every 10 minutes, and added to 900 μL of a 2.2 mM solution of benzyl alcohol (internal standard) in 2% isopropanol/hexanes (HPLC grade). Samples were analysed using a Waters 2695 Alliance HPLC at a flow rate of 2.1 mL min^−1 (8.0% PrOH/hexanes) on a Sunfire Silica column (5 μm, 4.6×250 mm) and determined by their UV absorbance.

[4] = Peroxyl radical clock kinetics; conditions: double reciprocal plot
Description: Peroxyl radical clocking experiments (to determine the inhibition rate constant kinh) for compound 5 were carried out according to our previously published reports (see Hanthorn, J., et al. J. Org. Chem. 2012, 77, 6895). Inhibition rate constants of the other compounds are as reported previously. A double reciprocal plot was used to obtain km=2.4×10^7 M^−1s^−1 for compound 5.

[5] = Cyclic voltammetry (standard potential); format: physicochemical; conditions: 1 mM in CH3CN containing 0.1 M Bu4NPF6
Description: A standard potential for diarylamine 5 was measured from its cyclic voltammagram obtained using a BASi potentiostat (available from BASi Analytical Instruments, West La Fayette, Ind., USA) with a glassy carbon working electrode, a platinum counter electrode and a Ag/AgNO3 reference electrode. The diarylamine was dissolved in degassed acetonitrile containing 0.1 M tetrabutylammonium hexafluorophosphate as supporting electrolyte and the current recorded in the range of 0-1 V at a scan rate of 200 mV/s. Standard potentials of the other compounds are reported in previous publications. A cyclic voltammogram of diarylamine 5 (1 mM in CH3CN containing 0.1 M Bu4NPF6) vs. Ag/Ag^+ gave E^0=0.84 V vs. NHE.

[6] = Tetralin autoxidation at 70° C. initiated by azobis(α-tetralin); conditions: hexanoic acid 50 μM, antioxidant 2 μM
Description: Fresh tetralin was prepared by passing it through a column of silica. Tetralin (1.0 mL) was added to a glass vial, followed by chlorobenzene (1.0 mL). A magnetic Teflon-coated stir bar was added, and the vial was capped with a rubber septum. The vial was then placed in a heating block at 70° C. for 5 minutes. Antioxidant (4, 7) (0.002 mmol) were added. For those experiment where acid was present, as noted in the figure captions, hexanoic acid (0.050 mmol) was also added at this point. Azobis(α-tetralin) (0.1 mmol) was added as the initiator. The solution was stirred for 30 s and the first sample was taken. 100 μL samples were taken at regular intervals and added to 900 μL of a solution containing 2.2 mM benzyl alcohol, 10 mM butylated-hydroxytoluene, and 10 mM triphenylphosphine in 2% isopropanol/hexanes (HPLC grade). Samples were analysed using a Waters 2695 Alliance HPLC (2.0% iPrOH/hexanes, 1.6 ml min^−1; 10 min; Sunfire Silica column (5 μm, 4.6×250 mm)) and analysed by UV absorbance.

[7] = TTBP 1 mM, 40 μM antioxidant, 160° C.

| SMILES | inhibition of autoxidation in the presence of added base, compared with 7 [1, 7] | pKa [2] | effect of added palmitic acid on inhibitory activity ([1]; 40 μM antioxidant, 160° C.) | effect of added base 2,4,6-tri-tert-butylpyridine on inhibition of autoxidation ([1]; 40 μM antioxidant, 160° C.) | also measured |
| --- | --- | --- | --- | --- | --- |
| CCCCN(CCCC)c1ncc(Nc2cnc(N(CCCC)CCCC)nc2)cn1 [Compound 2, N^2,N^2-Dibutyl-N^5-(2-(dibutylamino)pyrimidin-5-yl)pyrimidine-2,5-diamine] | particularly good | 8.8 ± 0.1 | – | – | – |
| CCCCCCN(CCCCCC)c1ccc(Nc2ccccc2)cn1 [Compound 3, N^2,N^2-Dihexyl-N^5-phenylpyridine-2,5-diamine] | superior to 7 | 8.4 ± 0.1 | – | – | stability to O2 [3]: relatively unstable |
| CCCCCCN(CCCCCC)c1ncc(Nc2ccccc2)cn1 [Compound 4, N^2,N^2-Dihexyl-N^5-phenylpyrimidine-2,5-diamine] | particularly good | 8.2 ± 0.2 | disrupt the inhibitory activity | unprecedented inhibited period | difference in Δt2% (delay to reach [ROOH]=2%) relative to 7 ([1]; 40 μM antioxidant, TTBP 1 mM, 160° C.): 12.5 fold; effect of other bases on activity ([1]; cesium carbonate, potassium carbonate, or Primene 81-R (1 mM), 160° C.): rescued |
| CCCCCCc1ncc(Nc2cnc(N(CCCC)CCCC)nc2)cn1 [Compound 5, N^2,N^2-Dibutyl-N^5-(2-hexylpyrimidin-5-yl)pyrimidine-2,5-diamine] | particularly good | 8.3 ± 0.1 | – | – | inhibition rate constant kinh (printed km) [4]: 2.4e+07 M⁻¹ s⁻¹; standard potential E^0 [5]: 0.84 V vs. NHE |
| c1ccc(Nc2ccccc2)cc1 [Compound 7, reference compound] | – | 4.6 ± 0.3 | unchanged | no effect | effect of added base 2,4,6-tri-tert-butylpyridine on inhibition of autoxidation ([1]; 40 μM antioxidant, 160° C., listed as diphenylamine): did not impact the reactivity; effect of added acid on antioxidant activity [6]: does not affect the activity |
| CCCCCCCCN(CCCCCCCC)c1ncc(Nc2ccc(C(C)(C)C)cc2)cn1 [Compound 20, N^5-(4-(tert-butyl)phenyl)-N^2,N^2-dioctylpyrimidine-2,5-diamine] | – | – | – | – | stability and reactivity compared with compound 4 ([1]; 40 μM, with and without TTBP 1 mM, 160° C. (FIG. 9)): slightly increased stability and reactivity |

— US10323017B2, “Antioxidants and methods to maximize performance” (University of Ottawa, priority 2015, dated 2019)
